We go through 68 sequences from the supplement of paper PMC11208160.

A short description of the series: recombinant UMI read abundance after kanamycin selection (control-corrected) (log10(CPM+1)); higher = more efficient recombination; extreme values may be limits of the assay; sequences stand for … in AGTGCAGAGAAAATCGGCCAGTTTTCTCTGCCTGCAGTCCGCATGCCGTGGGACCCCTTGGGTTCTAACCTGTTGCCTAGATTTATGCAGCGGACTGCCTTTCTCCCAAAGTGATAAACCGG…AGGTTGGTTTCACT; site = the 11-nt donor. An outline of the steps:
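Values, expressed as log10(CPM+1), derive from recombinant UMI counts converted to CPM, averaged across replicates and scaled by control-derived factors. Plating was with IPTG (0.07 mM) plus kanamycin or unselected, two replicates each. The screen pooled donor and donor-binding-loop pairs for the IS621 bridge recombinase in Escherichia coli.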
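Further: IS621 bridge recombinase in Escherichia coli cells against a fixed T5 target plasmid.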

Take “CAATTCGCATGGACCGGTTTTCCCGGTAATCCGTATTTGCT (site CAATTCTCTAG)”: the “recombinant UMI read abundance (log10)” value is 0.
Then “CAATTCTCATGGACCGGTTTTCCCGGTAATCCGTATTTGAA (site CAATACTCTTT)”, with 0.00453; and “CAATTCTCATGGACCGGTTTTCCCGGTAATCCGTATTTGAA (site CAATCCTCTTT)”, with 0.327.
Next, “CAATTCTCATGGACCGGTTTTCCCGGTAATCCGTATTTGAA (site CAATGCTCTTT)”: 0.0109; “CAATTCTCATGGACCGGTTTTCCCGGTAATCCGTATTTGAA (site CAATTCTCTTT)”: 2.5.
With “CACAACGCATGGACCGGTTTTCCCGGTAATCCGTATTTGCA (site CACAACGCTTG)”, the “recombinant UMI read abundance (log10)” value stood at 2.49.
As for “CACACCCCATGGACCGGTTTTCCCGGTAATCCGTATTTGCC (site CACACCCCTGG)”, the “recombinant UMI read abundance (log10)” value is 1.91.
Then “CACACCTCATGGACCGGTTTTCCCGGTAATCCGTATTTGCC (site CACACCTCTGG)”, with 2.87.
Next, “CACACCTCATGGACCGGTTTTCCCGGTAATCCGTATTTGCC (site CACCCCTCTGG)”: 1.27; “CACACCTCATGGACCGGTTTTCCCGGTAATCCGTATTTGCC (site CACGCCTCTGG)”: 0.
Regarding “CACACCTCATGGACCGGTTTTCCCGGTAATCCGTATTTGCC (site CACTCCTCTGG)”, the “recombinant UMI read abundance (log10)” value worked out at 1.97.
For the sequence “CACAGATCATGGACCGGTTTTCCCGGTAATCCGTATTTGCT (site CACAGATCTAG)”, the “recombinant UMI read abundance (log10)” value came out at 2.32.
“CACAGCGCATGGACCGGTTTTCCCGGTAATCCGTATTTGTT (site CACAGCGCTAA)”: the “recombinant UMI read abundance (log10)” value worked out at 1.99.
As for “CACAGGTCATGGACCGGTTTTCCCGGTAATCCGTATTTGAT (site CACAGGTCTAT)”, the “recombinant UMI read abundance (log10)” value was determined as 2.14.
In the case of “CACATGACATGGACCGGTTTTCCCGGTAATCCGTATTTGGA (site CACATGACTTC)”, the “recombinant UMI read abundance (log10)” value was 1.1.
Then “CACATGTCATGGACCGGTTTTCCCGGTAATCCGTATTTGCA (site CACATGTCTTG)”, with 2.4; and “CACATTTCATGGACCGGTTTTCCCGGTAATCCGTATTTGAA (site CACATTTCTTT)”, with 0.
On to “CACCACACATGGACCGGTTTTCCCGGTAATCCGTATTTGTA (site CACCACACTTA)”, for which the “recombinant UMI read abundance (log10)” value was determined as 2.13.
For the sequence “CACCACACATGGACCGGTTTTCCCGGTAATCCGTATTTGTA (site CCCCACACTTA)”, the “recombinant UMI read abundance (log10)” value stood at 0.591.
For the sequence “CACCACACATGGACCGGTTTTCCCGGTAATCCGTATTTGTA (site CGCCACACTTA)”, the “recombinant UMI read abundance (log10)” value came out at 0.29.
In the case of “CACCACACATGGACCGGTTTTCCCGGTAATCCGTATTTGTA (site CTCCACACTTA)”, the “recombinant UMI read abundance (log10)” value amounted to 0.179.
Next, “CACCCGACATGGACCGGTTTTCCCGGTAATCCGTATTTGTA (site CACCCGACTTA)”: 1.32; “CACCCGTCATGGACCGGTTTTCCCGGTAATCCGTATTTGTT (site CACCCGTCTAA)”: 2.2; “CACCGATCATGGACCGGTTTTCCCGGTAATCCGTATTTGCC (site CACCGATCTGG)”: 2.44.
In the case of “CACCTTACATGGACCGGTTTTCCCGGTAATCCGTATTTGCC (site CACCTTACTGG)”, the “recombinant UMI read abundance (log10)” value worked out at 1.46.
Take “CACGACACATGGACCGGTTTTCCCGGTAATCCGTATTTGTG (site CACGACACTCA)”: the “recombinant UMI read abundance (log10)” value was 1.41.
Next, “CACGATTCATGGACCGGTTTTCCCGGTAATCCGTATTTGCC (site CACGATTCTGG)”: 2.11; “CACGCAGCATGGACCGGTTTTCCCGGTAATCCGTATTTGCG (site CACGCAGCTCG)”: 1.32; “CACGCGCCATGGACCGGTTTTCCCGGTAATCCGTATTTGTG (site CAAGCGCCTCA)”: 0.00364.
Then “CACGCGCCATGGACCGGTTTTCCCGGTAATCCGTATTTGTG (site CACGCGCCTCA)”, with 0.00403; and “CACGCGCCATGGACCGGTTTTCCCGGTAATCCGTATTTGTG (site CAGGCGCCTCA)”, with 0.056.
On to “CACGCGCCATGGACCGGTTTTCCCGGTAATCCGTATTTGTG (site CATGCGCCTCA)”, for which the “recombinant UMI read abundance (log10)” value is 0.
Then “CACGCGTCATGGACCGGTTTTCCCGGTAATCCGTATTTGGG (site CACGCGTCTCC)”, with 1.04; and “CACGGCCCATGGACCGGTTTTCCCGGTAATCCGTATTTGTT (site AACGGCCCTAA)”, with 0.0126.
As for “CACGGCCCATGGACCGGTTTTCCCGGTAATCCGTATTTGTT (site CAAGGCCCTAA)”, the “recombinant UMI read abundance (log10)” value stood at 0.0138.
Next, “CACGGCCCATGGACCGGTTTTCCCGGTAATCCGTATTTGTT (site CACAGCCCTAA)”: 0.215.
With “CACGGCCCATGGACCGGTTTTCCCGGTAATCCGTATTTGTT (site CACCGCCCTAA)”, the “recombinant UMI read abundance (log10)” value was 0.0224.
Then “CACGGCCCATGGACCGGTTTTCCCGGTAATCCGTATTTGTT (site CACGACCCTAA)”, with 0.652.
Then “CACGGCCCATGGACCGGTTTTCCCGGTAATCCGTATTTGTT (site CACGCCCCTAA)”, with 0.0151; and “CACGGCCCATGGACCGGTTTTCCCGGTAATCCGTATTTGTT (site CACGGACCTAA)”, with 0.0168.
With “CACGGCCCATGGACCGGTTTTCCCGGTAATCCGTATTTGTT (site CACGGCACTAA)”, the “recombinant UMI read abundance (log10)” value amounted to 0.0172.
Next, “CACGGCCCATGGACCGGTTTTCCCGGTAATCCGTATTTGTT (site CACGGCCCTAA)”: 0.135; “CACGGCCCATGGACCGGTTTTCCCGGTAATCCGTATTTGTT (site CACGGCCCTAC)”: 0.017; “CACGGCCCATGGACCGGTTTTCCCGGTAATCCGTATTTGTT (site CACGGCCCTAG)”: 1.14.
Consider “CACGGCCCATGGACCGGTTTTCCCGGTAATCCGTATTTGTT (site CACGGCCCTAT)”, for which the “recombinant UMI read abundance (log10)” value stood at 0.437.
Regarding “CACGGCCCATGGACCGGTTTTCCCGGTAATCCGTATTTGTT (site CACGGCCCTCA)”, the “recombinant UMI read abundance (log10)” value turned out to be 0.0268.
Next, “CACGGCCCATGGACCGGTTTTCCCGGTAATCCGTATTTGTT (site CACGGCCCTGA)”: 1.16; “CACGGCCCATGGACCGGTTTTCCCGGTAATCCGTATTTGTT (site CACGGCCCTTA)”: 0.0328.
Then “CACGGCCCATGGACCGGTTTTCCCGGTAATCCGTATTTGTT (site CACGGCGCTAA)”, with 0.0318; and “CACGGCCCATGGACCGGTTTTCCCGGTAATCCGTATTTGTT (site CACGGCTCTAA)”, with 1.79; and “CACGGCCCATGGACCGGTTTTCCCGGTAATCCGTATTTGTT (site CACGGGCCTAA)”, with 0.
As for “CACGGCCCATGGACCGGTTTTCCCGGTAATCCGTATTTGTT (site CACGGTCCTAA)”, the “recombinant UMI read abundance (log10)” value turned out to be 0.311.
Take “CACGGCCCATGGACCGGTTTTCCCGGTAATCCGTATTTGTT (site CACGTCCCTAA)”: the “recombinant UMI read abundance (log10)” value turned out to be 0.0115.
For the sequence “CACGGCCCATGGACCGGTTTTCCCGGTAATCCGTATTTGTT (site CACTGCCCTAA)”, the “recombinant UMI read abundance (log10)” value worked out at 0.0132.
Then “CACGGCCCATGGACCGGTTTTCCCGGTAATCCGTATTTGTT (site CAGGGCCCTAA)”, with 0.00724; and “CACGGCCCATGGACCGGTTTTCCCGGTAATCCGTATTTGTT (site CATGGCCCTAA)”, with 0.013; and “CACGGCCCATGGACCGGTTTTCCCGGTAATCCGTATTTGTT (site CCCGGCCCTAA)”, with 0.0158.
As for “CACGGCCCATGGACCGGTTTTCCCGGTAATCCGTATTTGTT (site CGCGGCCCTAA)”, the “recombinant UMI read abundance (log10)” value was found to be 0.0132.
Next, “CACGGCCCATGGACCGGTTTTCCCGGTAATCCGTATTTGTT (site CTCGGCCCTAA)”: 0.0153; “CACGGCCCATGGACCGGTTTTCCCGGTAATCCGTATTTGTT (site GACGGCCCTAA)”: 0.0197.
Then “CACGGCCCATGGACCGGTTTTCCCGGTAATCCGTATTTGTT (site TACGGCCCTAA)”, with 0.0279.
Then “CACGGCGCATGGACCGGTTTTCCCGGTAATCCGTATTTGTT (site CACGGCACTAA)”, with 1.5; and “CACGGCGCATGGACCGGTTTTCCCGGTAATCCGTATTTGTT (site CACGGCCCTAA)”, with 0.445; and “CACGGCGCATGGACCGGTTTTCCCGGTAATCCGTATTTGTT (site CACGGCGCTAA)”, with 1.74.
With “CACGGCGCATGGACCGGTTTTCCCGGTAATCCGTATTTGTT (site CACGGCTCTAA)”, the “recombinant UMI read abundance (log10)” value worked out at 1.22.
Next, “CACGTATCATGGACCGGTTTTCCCGGTAATCCGTATTTGAC (site CACGTATCTGT)”: 2.78; “CACGTATCATGGACCGGTTTTCCCGGTAATCCGTATTTGAC (site CTAGTATCTGT)”: 1.1.
“CACGTCACATGGACCGGTTTTCCCGGTAATCCGTATTTGGG (site CAAGTCACTCC)”: the “recombinant UMI read abundance (log10)” value was 0.0977.
